Data reported in a melting point compilation (Tetko et al.; mined from patent text by program, amines drawn as free bases though some values may be those of a salt).

SMILES | melting point
CCCCCCN1CN(C)C=C1C(=O)NCCCCCCOc1ccc(OC)cc1 | 35 to 36 °C
CC(=O)c1nn2c3c(cccc13)CCC2 | 62 to 64 °C
N#Cc1ccc(N2C(=O)[C@H]3C(O)C(O)CN3C2=O)c2ccccc12 (some centres not stated) | 225 °C
CC(Oc1ccc(N(C)c2nc3cc(Cl)ccc3o2)cc1)C(=O)O (configuration not stated) | 152 to 154 °C
COc1cccc2c(=O)c3c(O)cc(OCC4CS4)cc3oc12 (configuration not stated) | 187 °C
O=C1NCC(Cc2ccccc2OCc2ccccc2)O1 (configuration not stated) | 90 to 91 °C
c1ccc2c(c1)CCc1c-2n[nH]c1-c1ccncc1 | 229 °C
CC(=NO)C(C)(C)COc1ccc(F)cc1 | 65 to 66 °C
CCCCCC1=CN(N)C2=NC(O)N(CCCNC(C)=O)C2=C1 (configuration not stated) | 189 to 191 °C
Nc1ccc(Cl)nc1Nc1ccc2c(c1)OCO2 | 162 to 163 °C
Cn1c(=O)c2cn(S(=O)(=O)CCCCl)nc2n(C)c1=O | 160 to 162 °C
CCCc1nn(C)c2c(=O)[nH]c(-c3cc(C(O)CN4CCNCC4)ccc3OCC)nc12 (configuration not stated) | 130 to 140 °C
COC(=O)C=CC=CCSc1ccc(N(C)C)cc1 | 68 to 70 °C
CN1CCC(c2c[nH]c3ccc(NC(=O)c4ccccn4)nc23)CC1 | 221 to 223 °C
CCOC(=O)c1cncc(O)c1 | 150 °C
CC(C)(C)OC(=O)N1C(=O)CCC1=O | 76 to 78 °C
CCOc1cc(OCC)c2c(C)c(CCCl)c(=O)oc2c1 | 123 to 126 °C
C[C@@H](c1ccc(-c2ccc(F)cn2)cc1)N1CC[C@](CC(C)(C)O)(c2ccccc2)OC1=O | 159 to 160 °C
CCCc1nc(C)n2nc(S(=O)(=O)N(C)C)nc2c1Cc1ccc(-c2ccccc2C#N)cc1 | 158 °C
Cc1c(Cl)ccc(N(C)C(=O)CN2C(=O)c3ccccc3C2=O)c1Cl | 193 to 194 °C
CS(=O)(=O)Nc1cc([C@@H](O)CNC2CCN(c3ccc(CCC(=O)O)cc3)CC2)ccc1O | 130 to 133 °C
COc1cc(Nc2nccc(-c3ccc(NCCN4CCCC4)nc3)n2)cc(OC)c1OC | 165 to 166 °C
O=C(NCCn1cncn1)c1sc2ccccc2c1Cl | 151 to 152 °C
O=C(O)c1ccc(-c2nc3ccccc3s2)nc1 | > 300 °C

SMILES | melting point
OCc1cc(N2CCCC2)ncn1 | 136 to 139 °C
CCCCNC(=O)Oc1cccc(NC(=O)CC(C)(OCC)OCC)c1 | 130 °C
O=C1CS[C@@H]2[C@H](NC(=O)Cc3ccccc3)C(=O)N2C1 | 183 °C
COCCc1nc2c(N)nc3ccccc3c2n1CCCNC(=O)Nc1ccccc1 | 40 °C
c1csc(-c2noc(COc3ccc(CCCn4ccnc4)cc3)n2)c1 | 118 to 119 °C
COC[C@](C#N)(C(=O)N1CCN(c2cnccn2)CC1)[C@H](c1ccccc1OC)c1cccc2ccccc12 | 149 °C
Cc1[nH]c(C(=O)Nc2ccc3c(c2)OCCO3)c(C)c1-c1nc2ccc(C(=O)c3ccccc3)cc2[nH]1 | 145 to 147 °C
CC(C)[C@H](NC(=O)OCc1ccccc1)C(=O)N[C@@H](Cc1ccccc1)[C@@H](O)[C@@H](O)[C@H](Cc1ccccc1)NC(=O)[C@@H](NC(=O)N1CCN(C)CC1)C(C)C | 216 to 219 °C
O=C(Nc1ccc(Cl)c(Cl)c1)c1ccccc1SSc1ccccc1C(=O)Nc1ccc(Cl)c(Cl)c1 | 230 to 233 °C
CC(Cc1ccc(Cl)c(Cl)c1)C(=O)Nc1cccc2ncccc12 (configuration not stated) | 168 to 170 °C
CC(=O)Sc1c(F)c(F)c(C=O)c(F)c1F | 86 to 87 °C
O=C(O)[C@@H](CCN1C(=O)c2ccccc2C1=O)Oc1c(Br)cc(-c2c3ccccc3c(Br)c3sc4ccccc4c23)cc1Br | 215 to 217 °C
O=C1c2cccc3c(Cl)ccc(c23)C(=O)N1O | 234 to 236 °C
O=C(CCl)c1ncccn1 | 73 to 80 °C
Cc1nsc(Br)c1S(=O)(=O)NC(C)(C)C | 118 to 123 °C
COc1cc(C(O)CS(C)(=O)=O)cc(OC)c1N(C)C(C)=O (configuration not stated) | 175 to 177 °C
CC(C)(C)c1ccc(C(O)CCCN2CCC(C3(O)c4ccccc4COc4ccccc43)CC2)cc1 (configuration not stated) | 135 to 137 °C
NC(=O)Cc1ccccc1Cn1ccc(OCc2ccc(F)cc2F)c(Br)c1=O | 178 to 183 °C
CC(=CCO)CS(=O)(=O)c1ccccc1 | 55 to 56.5 °C
CC(=O)N1CS(=O)c2c1cc(C)cc2[N+](=O)[O-] (configuration not stated) | 141 °C
O=C(O)c1ccc(C(F)(F)F)cc1SC1CCCCC1 | 115 to 116 °C
COc1ccc(S(=O)(=O)c2ccc(C)nc2Nc2c(C)cc(C)cc2C)cc1 | 165 to 167 °C
CC(C)OC(=O)c1cc(-c2nn(C)c(C(F)(F)F)c2Cl)c(F)cc1Cl | 69 °C
Clc1ncc(Br)c(NC2CCCC2)n1 | 95 to 96 °C

SMILES | melting point
CC(C)[C@H](CCC(=O)OCc1ccccc1)NC(=O)OC(C)(C)C | 94 to 96 °C
O=C(O)c1ccc(-c2cccc(O)c2)cc1 | 180 °C
Cc1nc2c3c(ccc2[nH]1)[C@H]1OCCO[C@@H]1[C@@H](c1ccccc1)O3 | 260 °C
O=C(NN=CC(F)(F)C(F)(F)F)c1nc(Oc2cccc(C(F)(F)F)c2)ccc1Cl | 130 to 131 °C
COc1cc(C=S2C=CN=C2N)c([N+](=O)[O-])cc1OC (configuration not stated) | 125 to 130 °C
COc1ccc(N2CCN(Cc3cc4ccccc4[nH]c3=O)CC2)cc1 | 263 to 266 °C
CCn1cc(C(=O)O)c(=O)c2cc(F)c(C(=O)CBr)c(F)c21 | 213 to 215 °C
COC(=O)c1cn2c(n1)COc1ccc([N+](=O)[O-])cc1-2 | 270 to 272 °C
COCCN(C)C(=O)Nc1c(C(=O)c2ccccc2)[nH]c2cc(Cl)ccc12 | 66 to 72 °C
OCC1(c2ccccc2)CCCC1 | 41 to 44 °C
CON(C)C(=O)C(CO[Si](C)(C)C(C)(C)C)NC(=O)OC(C)(C)C (configuration not stated) | 71 to 72 °C
CCCCn1c(=O)c2c(ncn2S(=O)(=O)c2ccc(N(OC(C)=O)C(C)=O)cc2)n(CCCC)c1=O | 155 to 157 °C
CC(C)c1nn(-c2ccccc2)c(-c2ccc(F)cc2)c1CO | 138 to 140 °C
O=C1c2ccccc2C(=O)N1CCCC=NNc1ccc(S(=O)(=O)Nc2ccccc2)cc1 | 126 to 129 °C
Fc1ccc([C@@H]2CCN(Cc3ccccc3)C[C@H]2COc2ccc3c(c2)OCO3)cc1 | 98 to 100 °C
COc1ccc(S(=O)(=O)Nc2cccnc2Nc2cccc(F)c2)cc1 | 180 to 181 °C
OC(CCc1ccc2ccccc2c1)c1cnc2sc3c(n12)CCCCC3 (configuration not stated) | 124 to 127 °C
c1cncc(CNC2=Nc3ccccc3Nc3ncccc32)c1 | 192 to 194 °C
COC(=O)C(C)(C)S(=O)(=O)N1CCC(c2ccc(Br)c(C)c2)CC1 | 103 to 106 °C
OC(Cn1cncn1)(c1ccc(Cl)cc1)C1(n2cnc(Cl)n2)CC1 (configuration not stated) | 156 °C
CCCn1c2c(c3ccccc3c1=O)C(=O)c1ccccc1-2 | 166 to 167 °C
COC(=O)c1ccc(-c2cc(-c3cc4c(cc3C)CCCC4(C)C)[nH]n2)cc1 | 92 to 93 °C
CCOC(=O)c1ccc(NC(=O)C=C(c2ccc(Cl)cc2)c2ccc(Cl)cc2)cc1 | 207 to 209 °C
CCCN(C=Cc1ccc([N+](=O)[O-])c2[nH]ncc12)CCC | 166 to 167 °C
